Data taken from patent US10577368B2 (The United States of America, as represented by the …, priority 2013, dated 2020).

Tests used:
hA1AR = hA1AR (Homo sapiens (Human), UniProt P30542); experiment: Radioligand binding at hA1AR, CHO cell membranes, [3H]R-PIA; details: for inhibition at 10 µM: read-out: hA1AR % inhibition; for hA1AR % inhibition: inhibition of binding at 10 μM
hA2AAR = hA2AAR (Homo sapiens (Human), UniProt P29274); experiment: Radioligand binding at hA2AAR, HEK293 cell membranes, [3H]CGS21680; details: for inhibition at 10 µM: read-out: hA2AAR % inhibition; for hA2AAR % inhibition: inhibition of binding at 10 μM
Chain of hA2AAR (P29274 whole entry): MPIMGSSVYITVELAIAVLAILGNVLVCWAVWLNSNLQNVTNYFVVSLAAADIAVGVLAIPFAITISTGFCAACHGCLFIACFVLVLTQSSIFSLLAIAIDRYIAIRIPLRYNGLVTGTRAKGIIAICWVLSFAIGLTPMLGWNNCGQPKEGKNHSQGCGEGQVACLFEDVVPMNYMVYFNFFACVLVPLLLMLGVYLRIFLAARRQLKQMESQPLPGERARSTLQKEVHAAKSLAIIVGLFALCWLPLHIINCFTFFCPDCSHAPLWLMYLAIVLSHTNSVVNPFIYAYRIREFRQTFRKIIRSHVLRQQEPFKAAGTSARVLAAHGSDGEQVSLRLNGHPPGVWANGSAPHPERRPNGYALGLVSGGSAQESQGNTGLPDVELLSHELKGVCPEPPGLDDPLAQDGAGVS

mA3AR = mA3AR (Mus musculus (Mouse), UniProt Q61618); experiment: Competition binding at mA3AR, HEK293 cell membranes
Chain of mA3AR (Q61618 whole entry): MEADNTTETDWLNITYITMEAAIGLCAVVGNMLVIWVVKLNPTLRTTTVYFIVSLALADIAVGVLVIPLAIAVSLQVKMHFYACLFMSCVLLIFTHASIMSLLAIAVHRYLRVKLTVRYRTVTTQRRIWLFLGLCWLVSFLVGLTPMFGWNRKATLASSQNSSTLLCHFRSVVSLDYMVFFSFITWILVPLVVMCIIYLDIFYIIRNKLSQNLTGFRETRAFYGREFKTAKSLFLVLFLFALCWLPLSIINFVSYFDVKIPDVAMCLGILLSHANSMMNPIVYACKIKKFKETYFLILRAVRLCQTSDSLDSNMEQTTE

[1] = system: chronic constriction injury model of neuropathic pain; experiment: CCI model of neuropathic pain, reversal of mechano-allodynia; assay type: in vivo, mice; details: for Max. effect Emax (% ± SEM) / Time of peak protection / Effect at 3 h (% ± SEM): 3 μmol/kg p.o., mice; for Max. effect Emax (% ± SEM) / Time of peak protection: ipsilateral hind paw; for Efficacy in reversing NP in vivo (of full reversal at peak effect): CCI model
hA3AR = hA3AR (Homo sapiens (Human), UniProt P0DMS8); experiment: Radioligand binding at hA3AR, CHO cell membranes, [125I]I-AB-MECA
Chain of hA3AR (P0DMS8 whole entry): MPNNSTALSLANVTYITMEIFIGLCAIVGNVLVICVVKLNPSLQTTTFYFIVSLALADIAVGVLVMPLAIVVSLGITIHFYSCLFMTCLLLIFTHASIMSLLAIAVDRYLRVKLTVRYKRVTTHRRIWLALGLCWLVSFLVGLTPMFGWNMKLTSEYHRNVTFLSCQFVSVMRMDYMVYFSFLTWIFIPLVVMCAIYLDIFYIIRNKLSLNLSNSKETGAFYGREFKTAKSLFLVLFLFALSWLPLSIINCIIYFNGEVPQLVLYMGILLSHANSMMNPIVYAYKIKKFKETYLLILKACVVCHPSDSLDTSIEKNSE

human DAT = human DAT (Homo sapiens (Human), UniProt Q01959); experiment: Radioligand ([3H]WIN35428) binding at the dopamine transporter; details: 10 μM
Chain of human DAT (Q01959 whole entry): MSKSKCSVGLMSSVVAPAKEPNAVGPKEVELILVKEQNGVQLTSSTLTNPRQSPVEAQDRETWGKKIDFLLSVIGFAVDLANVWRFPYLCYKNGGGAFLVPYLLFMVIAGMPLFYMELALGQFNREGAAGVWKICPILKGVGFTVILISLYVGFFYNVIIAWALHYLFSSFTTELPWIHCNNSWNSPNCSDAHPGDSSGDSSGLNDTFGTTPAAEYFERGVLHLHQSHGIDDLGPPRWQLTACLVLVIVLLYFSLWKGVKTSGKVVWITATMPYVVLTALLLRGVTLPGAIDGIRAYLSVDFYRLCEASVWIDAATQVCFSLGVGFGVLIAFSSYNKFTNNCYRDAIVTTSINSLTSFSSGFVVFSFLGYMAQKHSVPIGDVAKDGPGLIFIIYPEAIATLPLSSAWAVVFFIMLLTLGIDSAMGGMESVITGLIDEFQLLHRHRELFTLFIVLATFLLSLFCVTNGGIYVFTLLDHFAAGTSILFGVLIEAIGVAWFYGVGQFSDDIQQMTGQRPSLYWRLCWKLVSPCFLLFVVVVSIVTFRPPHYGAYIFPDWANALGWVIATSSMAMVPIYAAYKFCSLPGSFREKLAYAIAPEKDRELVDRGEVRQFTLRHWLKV

Chain of hA1AR (P30542 whole entry): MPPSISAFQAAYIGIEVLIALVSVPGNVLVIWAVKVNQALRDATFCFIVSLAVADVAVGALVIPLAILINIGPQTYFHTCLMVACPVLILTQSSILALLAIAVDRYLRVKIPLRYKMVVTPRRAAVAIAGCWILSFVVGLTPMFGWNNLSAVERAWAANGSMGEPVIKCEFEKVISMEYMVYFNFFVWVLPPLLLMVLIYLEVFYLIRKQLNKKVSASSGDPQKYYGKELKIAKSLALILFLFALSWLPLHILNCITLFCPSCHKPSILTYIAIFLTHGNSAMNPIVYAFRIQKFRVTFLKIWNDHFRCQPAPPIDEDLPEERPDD

| Compound | inhibition at 10 µM (hA1AR) | inhibition at 10 µM (hA2AAR) | Ki (mA3AR) | Max. effect Emax (% ± SEM) [1] | Time of peak protection [1] | Efficacy in reversing NP in vivo (of full reversal at peak effect) [1] | Ki (hA3AR) | hA1AR % inhibition (hA1AR) | hA2AAR % inhibition (hA2AAR) | Effect at 3 h (% ± SEM) [1] | Increase of the level of radioligand ([3H]WIN35428) binding at the human DAT (human DAT) | Ki (hA2AAR) |
| --- | --- | --- | --- | --- | --- | --- | --- | --- | --- | --- | --- | --- |
| CNC(=O)[C@@]12C[C@@H]1[C@@H](n1cnc3c(NC)nc(C#Cc4ncccn4)nc31)[C@H](O)[C@@H]2O [Compound 6, (1S,2R,3S,4R,5S)-2,3-Dihydroxy-N-methyl-4-(6-(methylamino)-2-(pyrimidin-2-ylethynyl)-9H-purin-9-yl)bicyclo[3.1.0]hexane-1-carboxamide] | 25 ± 10% | 27 ± 5% | 65 ± 6 nM | 92.3 ± 7.7% | 0.5 to 1 h | less than full efficacy |  |  |  |  |  |  |
| CNC(=O)[C@@]12C[C@@H]1[C@@H](n1cnc3c(NC)nc(C#Cc4cc[nH]n4)nc31)[C@H](O)[C@@H]2O [Compound 9, (1S,2R,3S,4R,5S)-4-(2-((1H-Pyrazol-3-yl)ethynyl)-6-(methylamino)-9H-purin-9-yl)-2,3-dihydroxy-N-methylbicyclo[3.1.0]hexane-1-carboxamide] | 30% | 19 ± 2% | 50 ± 2 nM |  | 0.5 to 1 h |  |  |  |  |  |  |  |
| CNC(=O)[C@@]12C[C@@H]1[C@@H](n1cnc3c(NC)nc(C#Cc4ccc(OC)cc4)nc31)[C@H](O)[C@@H]2O [Compound 11, (1S,2R,3S,4R,5S)-2,3-Dihydroxy-4-(2-((4-methoxyphenyl)ethynyl)-6-(methylamino)-9H-purin-9-yl)-N-methylbicyclo[3.1.0]hexane-1-carboxamide] | 10% | 24 ± 8% |  |  | 0.5 to 1 h |  | 0.63 ± 0.07 nM |  |  |  |  |  |
| CNC(=O)[C@@]12C[C@@H]1[C@@H](n1cnc3c(NC)nc(C#Cc4cccc(OC)c4)nc31)[C@H](O)[C@@H]2O [Compound 12, (1S,2R,3S,4R,5S)-2,3-Dihydroxy-4-(2-((3-methoxyphenyl)ethynyl)-6-(methylamino)-9H-purin-9-yl)-N-methylbicyclo[3.1.0]hexane-1-carboxamide] | 8 ± 4% | 26 ± 5% |  |  | 0.5 to 2 h |  | 0.91 ± 0.07 nM |  |  |  |  |  |
| CNC(=O)[C@@]12C[C@@H]1[C@@H](n1cnc3c(NC)nc(C#Cc4ccccc4OC)nc31)[C@H](O)[C@@H]2O [Compound 13, (1S,2R,3S,4R,5S)-2,3-Dihydroxy-4-(2-((2-methoxyphenyl)ethynyl)-6-(methylamino)-9H-purin-9-yl)-N-methylbicyclo[3.1.0]hexane-1-carboxamide] | 12% | 20 ± 7% |  | 64.3 ± 10.7% | 1 h | ~70% | 0.77 ± 0.17 nM |  |  |  |  |  |
| CNC(=O)[C@@]12C[C@@H]1[C@@H](n1cnc3c(NC)nc(C#Cc4ccsc4)nc31)[C@H](O)[C@@H]2O [Compound 16, (1 S,2R,3S,4R,5S)-2,3-Dihydroxy-N-methyl-4-(6-(methylamino)-2-(thiophen-3-ylethynyl)-9H-purin-9-yl)bicyclo[3.1.0]hexane-1-carboxamide] | 11% | 3 ± 2% |  |  | 0.5 to 1 h | diminished | 0.52 ± 0.04 nM |  |  |  |  |  |
| CCc1ccc(C#Cc2nc(NC)c3ncn([C@H]4[C@H](O)[C@H](O)[C@]5(C(=O)NC)C[C@H]45)c3n2)o1 [Compound 34, (1S,2R,3S,4R,5S)-4-(2-((5-Ethylfuran-2-yl)ethynyl)-6-(methylamino)-9H-purin-9-yl)-2,3-dihydroxy-N-methylbicyclo[3.1.0]hexane-1-carboxamide] | 18% | 4 ± 4% |  |  | 1 h |  | 1.5 ± 0.28 nM |  |  |  |  |  |
| CNC(=O)[C@]12CC1[C@@H](n1cnc3c(NC)nc(-n4cc(-c5ccccn5)nn4)nc31)[C@H](O)C2O (stereo partly drawn) [Compound 103] |  |  |  | 55 ± 6% | 1 h |  | 1.84 ± 0.38 nM | 29 ± 7% | 26 ± 2% | 22 ± 7% |  |  |
| CNC(=O)[C@]12CC1[C@@H](n1cnc3c(NC)nc(-n4cc(-c5ncccn5)nn4)nc31)[C@H](O)C2O (stereo partly drawn) [Compound 104] |  |  |  | 89 ± 11% | 1 h |  | 3.48 ± 0.97 nM | 14 ± 7% | 27 ± 3% | 39 ± 10% |  |  |
| CNC(=O)[C@]12CC1[C@@H](n1cnc3c(NC)nc(-n4cc(-c5cnccn5)nn4)nc31)[C@H](O)C2O (stereo partly drawn) [Compound 105] |  |  |  | 78 ± 0% | 1 h |  | 2.21 ± 0.34 nM | 25 ± 10% | 8 ± 3% | 22 ± 7% |  |  |
| CNC(=O)[C@]12CC1[C@@H](n1cnc3c(NC)nc(-n4cc(-c5cnn(C)c5)nn4)nc31)[C@H](O)C2O (stereo partly drawn) [Compound 106] |  |  |  | 85 ± 5% | 1 h |  | 2.16 ± 0.32 nM | 2 ± 2% | 1 ± 1% | 22 ± 7% |  |  |
| CNC(=O)[C@]12CC1[C@@H](n1cnc3c(NC)nc(-n4cc(-c5cc6ccccc6o5)nn4)nc31)[C@H](O)C2O (stereo partly drawn) [Compound 108] |  |  |  | 55 ± 6% | 1 h |  | 1.25 ± 0.27 nM | 12 ± 7% | 40 ± 6% | 8 ± 8% |  |  |
| CNC(=O)[C@]12CC1[C@@H](n1cnc3c(NC)nc(-n4cc(-c5ccc(Br)s5)nn4)nc31)[C@H](O)C2O (stereo partly drawn) [Compound 111] |  |  |  | 69 ± 9% | 1 h |  | 0.58 ± 0.17 nM |  | 7 ± 6% | 14 ± 2% |  |  |
| CNC(=O)[C@]12CC1[C@@H](n1cnc3c(NCCc4ccccc4)nc(N=[N+]=[N-])nc31)[C@H](O)C2O (stereo partly drawn) [Compound 117] |  |  |  |  |  |  | 0.85 ± 0.1 nM | 93% | 71% |  |  |  |
| CNC(=O)[C@]12CC1[C@@H](n1cnc3c(NCCc4ccccc4)nc(I)nc31)[C@H](O)C2O (stereo partly drawn) [Compound 119] |  |  |  |  |  |  | 0.91 ± 0.14 nM | 68% |  |  |  |  |
| CNC(=O)[C@]12CC1[C@@H](n1cnc3c(NCCc4ccccc4)nc(-n4cc(-c5ccc(Cl)s5)nn4)nc31)[C@H](O)C2O (stereo partly drawn) [Compound 121] |  |  |  | 90% | 0.5 to 3 h |  | 6.66 ± 2.07 nM | 58% |  | 80% |  |  |
| CCNc1nc(C#Cc2ccc(Cl)s2)nc2c1ncn2[C@H]1C(O)[C@@H](O)[C@]2(C(=O)NC)C[C@H]12 (stereo partly drawn) [Compound 126] |  |  |  |  |  |  |  |  |  |  | 329% |  |
| CNC(=O)[C@@]12C[C@@H]1[C@@H](n1cnc3c(NC)nc(C#Cc4ccncc4)nc31)[C@H](O)[C@@H]2O [Compound 300, (1S,2R,3S,4R,5S)-2,3-Dihydroxy-N-methyl-4-(6-(methylamino)-2-(pyridin-4-ylethynyl)-9H-purin-9-yl)bicyclo[3.1.0] hexane-1-carboxamide] | 15% | 2 ± 2% |  |  | 1 h | low efficacy | 2.07 ± 0.16 nM |  |  |  |  |  |
| CNC(=O)[C@]12CC1[C@@H](n1cnc3cnc(C#Cc4ccccc4)nc31)[C@H](O)C2O (stereo partly drawn) [Compound 402] |  |  |  |  |  |  | 1.51 ± 0.41 nM | 28 ± 4% |  |  |  | 1200 nM |
